According to patent US12630563B2, “Macrocyclic RIP2-kinase inhibitors” (Oncodesign S.A., priority 2020, dated 2026):
pIC50: −log10 of the molar value.

Biological target: T1, recombinant hRIPK2 protein (kinase domain aa 1-299-His-tagged) (Homo sapiens, UniProt O43353)
T1 construct: kinase domain aa 1-299-His-tagged; purchased Life Technologies PR7829A
Assay: RIPK2 AlphaLISA assay (displacement of bead-bound CZC-8004 from hRIPK2)
Assay type: binding
Details: recombinant hRIPK2 kinase domain 10 nM, 2 h at 23° C.
Outline: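 His-tagged kinase domain (10 nM, as diluted) was mixed with compound (0.8% DMSO), acceptor beads bearing the probe CZC-8004 and Ni2+ donor beads. After 2 h at 23 °C, AlphaLISA signal was read. Loss of signal reflects displacement of the probe from RIPK2.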

T1 sequence (O43353 1-299): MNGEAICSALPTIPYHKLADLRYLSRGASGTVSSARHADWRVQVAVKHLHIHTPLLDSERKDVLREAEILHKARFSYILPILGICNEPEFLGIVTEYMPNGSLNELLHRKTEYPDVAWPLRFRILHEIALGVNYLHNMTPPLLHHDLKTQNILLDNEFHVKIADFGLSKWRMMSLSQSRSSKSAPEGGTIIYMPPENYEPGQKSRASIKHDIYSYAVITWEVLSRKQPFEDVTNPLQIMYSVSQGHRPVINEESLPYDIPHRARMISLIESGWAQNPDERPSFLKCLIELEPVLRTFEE

Compound	pIC50
CO[C@@H]1C[C@H]2COc3ccn4ncc(c4n3)-c3cc(cc(C(=O)NOC(C)C)c3)NCCN2C1=O [Example 107, (12R,14S)-12-methoxy-11-oxo-N-(propan-2-yloxy)-16-oxa-7,10,20,21,24-pentaazapentacyclo[15.5.2.1^2,6.0^10,^14.0^20,^23]pentacosa-1(23),2,4,6(25),17(24),18,21-heptaene-4-carboxamide]	7.00 to 8.00
CO[C@@H]1C[C@H]2COc3ccn4ncc(c4n3)-c3cc(cc(C4CC4)c3)NCCN2C1=O [Example 108, (12R,14S)-4-cyclopropyl-12-methoxy-16-oxa-7,10,20,21,24-pentaazapentacyclo[15.5.2.1^2,6.0^10,^14.0^20,^23]pentacosa-1(23),2,4,6(25),17(24),18,21-heptaen-11-one]	4.96 to 7.00
CO[C@@H]1C[C@H]2COc3ccn4ncc(c4n3)-c3cc(cc(-c4cn(C)nn4)c3)NCCN2C1=O [Example 119, (12R,14S)-12-methoxy-4-(1-methyl-1H-1,2,3-triazol-4-yl)-16-oxa-7,10,20,21,24-pentaazapentacyclo[15.5.2.1^2,6.0^1°,^14.0^2°,^23]pentacosa-1(23),2,4,6(25),17(24),18,21-heptaen-11-one]	7.00 to 8.00
CCO[C@H]1C[C@H]2COc3ccn4ncc(c4n3)-c3cc(cc(OC)c3)NCCN2C1=O [Example 121, (12S,14S)-12-ethoxy-4-methoxy-16-oxa-7,10,20,21,24-pentaazapentacyclo[15.5.2.1^2,6.0^10,^14.0^20,^23]pentacosa-1(23),2,4,6(25),17(24),18,21-heptaen-11-one]	> 8.00
COCCO[C@@H]1C[C@H]2COc3nc4c(cnn4cc3OCC3(C)COC3)-c3cc(cc(OC)c3)NCCN2C1=O [Example 122]	> 8.00

Continued, values first:

pIC50	Compound
> 8.00	C=Cc1cc2cc(c1)-c1cnn3ccc(nc13)OC[C@@H]1C[C@@H](OCC)C(=O)N1CCN2 [Example 102, (12R,14S)-4-ethenyl-12-ethoxy-16-oxa-7,10,20,21,24-pentaazapentacyclo[15.5.2.1^2,6.0^1°,^14.0^2°,^23]pentacosa-1(23),2,4,6(25),17(24),18,21-heptaen-11-one]
> 8.00	O=C1[C@H](O)C[C@H]2COc3ccn4ncc(c4n3)-c3cc(F)cc(c3)NCCN12 [Example 104, (12R,14S)-4-fluoro-12-hydroxy-16-oxa-7,10,20,21,24-pentaazapentacyclo[15.5.2. 1^2,6.0^10,^14.0^20,^23]pentacosa-1(23),2(25),3,5,17(24),18,21-heptaen-11-one]
> 8.00	CO[C@@H]1C[C@H]2COc3ccn4ncc(c4n3)-c3cc(cc(-c4ncno4)c3)NCCN2C1=O [Example 109, (12R,14S)-12-methoxy-4-(1,2,4-oxadiazol-5-yl)-16-oxa-7,10,20,21,24-pentaazapentacyclo[15.5.2.1^2,6.0^1°,^14.0^2°,^23]pentacosa-1(23),2(25),3,5,17(24),18,21-heptaen-11-one]
> 8.00	[2H]C([2H])([2H])C([2H])([2H])O[C@@H]1C[C@H]2COc3ccn4ncc(c4n3)-c3cc(cc(OC)c3)NCCN2C1=O [Example 110, (12R,14S)-12-(H5)ethoxy-4-methoxy-16-oxa-7,10,20,21,24-pentaazapentacyclo[15.5.2. 1^2,6.0^10,^14.0^20,^23]pentacosa-1(23),2,4,6(25),17(24),18,21-heptaen-11-one]
> 8.00	COCCO[C@@H]1C[C@H]2COc3nc4c(cnn4cc3C)-c3cc(cc(OC)c3)NCCN2C1=O [Example 115, (12R, 14S)-4-methoxy-12-(2-16-oxa-7,10,20,21,24-pentaazapentacyclo[15.5.2. 1^2,6.0^10,^14.0^20,^23]pentacosa-1(23),2,4,6(25),17(24),18, 21-heptaen-11-one]
> 8.00	COc1cc2cc(c1)-c1cnn3ccc(nc13)OC[C@@H]1C[C@@H](OCC3CCO3)C(=O)N1CCN2 (stereo partly drawn) [Example 120, (12R,14S)-4-methoxy-12-(oxetan-2-ylmethoxy)-16-oxa-7,10,20,21,24-pentaazapentacyclo[15.5.2.1^2,6.0^1°,^14.0^2°,^23]pentacosa-1(23),2,4,6(25),17(24),18,21-heptaen-11-one]
